Consider two compounds from patent US11969397B2, “Composition for preventing and treating transplant rejection or transplant rejection diseases, comprising novel compound and calcineurin inhibitor” (THE CATHOLIC UNIVERSITY OF KOREA INDUSTRY-ACADEMIC …, priority 2018, dated 2024).

One assay relates to allogenic T cells. Kind of assay: T cell proliferation in in vitro allogenic transplantation model (mouse cells). It counts as cell-based. Particulars: cultured 4 days; for T cell proliferation (3H-thymidine incorporation, FIG. 1): SD282 alone 250 μM or more, FK506 alone 1 and 5 nM, combination FK506 1 and 5 nM + SD282 250 μM; for T cell proliferation (flow cytometry, FIG. 2): SD282 alone, FK506 alone or combination. As to the method:
(§1) CD4+ T cells derived from a normal recipient (Balb/c, responder) (2×10^5 cells) were injected into each well of a 96-well round bottom plate, in vitro. Thereafter, for syngenic transplantation, normal recipient-derived T cell-removed splenocytes (2×10^5 cells), which had been irradiated with radiation, were added to each of the wells, followed by culturing under mixing. For allogenic transplantation, donor (C57BL/6, stimulator)-derived T cell-removed splenocytes were added to each of the wells, followed by culturing under mixing.
In order to evaluate T cell proliferations according to the treatment with SD282 alone, FK506 alone or in combination thereof, the untreated syngenic group and the untreated allogenic group of Example 1-1 were used as controls. The allogenic model was treated with 50, 250 and 500 μM of SD282 alone or 1 and 5 nM of FK506 alone. And, FK506 (1 and 5 nM) and SD282 (250 μM) were treated in combination, respectively. After the treatments, each group was cultured for 4 days and then alloresponses were evaluated by observing the T cell proliferations of the cultured cells, according to the 3H-thymidine incorporation method, the CFSE assay method, or the flow cytometry method.
In addition, in order to evaluate the synergistic effect according to the treatment of SD282 and FK506 in combination, the Combination Index (CI) value (drug treatment) was calculated. The CI value was obtained by the following equation. A value of 1 or less means that there is a synergistic effect between the combination of two drugs, and a value of 1 or more means that there is an antagonistic effect between the combination of two drugs.
A general note: Dividing cells build labelled thymidine or BrdU into new DNA.

The subject of the next assay is pathogenic Th17 cells. Kind of assay: Inhibition of pathogenic Th17 cells / IL-17 in in vitro allogenic model (mouse cells). It counts as cell-based. Particulars: 4 days, anti-CD3 0.1 μg/ml, SD282 50, 250, 500 μM, FK506 1, 5 nM, combination FK506 1, 5 nM + SD282 250 μM. As to the method: as §1
The T cell response regulates the activity of Th17 (T helper 17 cell)/IL-17 (Interleukin 17) and IL-17 is classified as an inflammatory cytokine. […] We also evaluated inhibitory activity against inflammatory cytokines according to the treatments with SD282 and FK506 alone or in combination. The untreated syngenic group and the untreated allogenic group of Example 1-1 were used as controls. The allogenic models were treated with 50, 250 and 500 μM of SD282 alone or 1 and 5 nM of FK506 alone. And, FK506 (1 and 5 nM) and SD282 (250 μM) were treated in combination, respectively. After the treatments, each group was cultured for 4 days and then stimulated with anti-CD3 (0.1 μg/ml). The inhibitory efficacy against IL-17+CD4+ T cells and IL-17 was evaluated by analyzing the cultured Th17 cells according to the ELISA method; and the proliferation of Fox3+ Treg cells was evaluated through the analysis of Treg cells.

The next assay relates to Foxp3 Treg cells. Kind of assay: Treg activity under Th17 differentiation condition in in vitro allogenic model (mouse cells). The note with it: 4 days, SD282 20 and 500 μM, FK506 1 and 5 nM, combination FK506 1, 5 nM + SD282 250 μM. It counts as cell-based. As to the method:
as §1
The allogenic models of Example 1-1 were treated with 20 and 500 μM of SD282 alone or 1 and 5 nM of FK506 alone. And, FK506 (1 and 5 nM) and SD282 (250 μM) were treated in combination, respectively. The isolated T cells were cultured for 4 days under the condition of Th17 cell differentiation so as to induce the differentiation to Th17 cells.

For assay [1], the system named is allogenic T cells (normal human PBMCs). Kind of assay: T cell proliferation in normal human PBMCs (MLR, CFSE). It counts as cell-based. Also noted: T cell proliferation (FIG. 13a): dose or concentration left out as unconfirmed. The note with it: for proliferation of allogenic T cells (FIG. 13b): 4 days, FK506 1 and 5 nM, SD282 alone, combination FK506 1, 5 nM + SD282 250 μM. Here is the method: In order to evaluate the T cell proliferations according to the treatment with SD282 alone, FK506 alone, or in combination thereof in normal human PBMCs (peripheral blood mononuclear cells, PBMCs), mixed leukocyte reaction (MLR) and CFSE (carboxyfluorescein succinimidyl ester) staining were performed. An untreated syngenic group and an untreated allogenic group were used as controls. […] And, FK506 (1 and 5 nM) and SD282 (250 μM) were treated in combination, respectively. After the treatments, each group was cultured for 4 days and then alloresponses were evaluated by observing the T cell proliferations of the cultured cells, according to the 3H-thymidine incorporation method or the flow cytometry method.

The test system of another assay is IL-17, IFN-γ and TNF-α. Kind of assay: Inflammatory cytokines in normal human PBMCs under allo-response (ELISA). The note with it: allogenic, 4 days, compared to the group treated with FK506 alone. It counts as cell-based. Here is the method: In order to evaluate the inhibitions against the activities of inflammatory cytokines according to the treatment with SD282 alone, FK506 alone, or in combination thereof in normal human peripheral blood cells (PBMCs), an untreated syngenic group and an untreated allogenic group were used as controls. Allogenic models were treated with 5, 250 and 500 μM of SD282 alone or 1 and 5 nM of FK506 alone. And, 1 and 5 nM of FK506 and 250 μM SD282 were treated in combination, respectively. After the treatments, each group was cultured for 4 days and then the inhibitory effects against IL-17, IFN-γ and TNF-α in the cultured cells was evaluated according to the ELISA method, so as to evaluate alloresponses.
(In general: In an ELISA, binding on a coated surface is turned into a signal by an enzyme label.)

Assay [2] concerns PBMCs of a liver-transplanted patient. Kind of assay: Microarray / KEGG pathway and gene regulation in PBMCs of a liver-transplanted patient. It counts as cell-based, human. Particulars: CD3 stimulation, 48 hours, SD282 250 μM. Here is the method:
In order to investigate changes in the signal factors related to immune cell modulation according to drug treatments in the peripheral blood cells (PBMCs) of a liver-transplanted patient, the PBMCs were treated with 250 μM of SD282 alone, 5 nM of FK506 alone, and the combination thereof, under the condition of TCR stimulation (under the CD3 stimulation). After culturing for 48 hours, the microarray analyses thereof were carried out by Macrogen, Inc.

On to `C=CC[C@@H]1/C=C(\C)C[C@H](C)C[C@H](OC)[C@H]2O[C@@](O)(C(=O)C(=O)N3CCCC[C@H]3C(=O)O[C@H](/C(C)=C/[C@@H]3CC[C@@H](O)[C@H](OC)C3)[C@H](C)[C@@H](O)CC1=O)[C@H](C)C[C@@H]2OC` [FK506, tacrolimus], for which, in the assay with allogenic T cells, the “T cell proliferation (3H-thymidine incorporation, FIG. 1)” value is listed as “not effective” and the “T cell proliferation (flow cytometry, FIG. 2)” value is on record as “inhibited”. In the assay on pathogenic Th17 cells, the “IL-17+CD4+ T cells (%) / proliferation of pathogenic Th17 cells” value (from here on “IL-17+CD4+ T cells (%) / proliferation”) was “did not effectively inhibit” and the “activity of the inflammatory cytokine IL-17 (ELISA)” value was “did not effectively inhibit”. In the assay with pathogenic Th17 cells (listed as Fk506), the “IL-17+CD4+ T cells (%) / proliferation” value is on record as “inhibited” and the “activity of the inflammatory cytokine IL-17 (ELISA)” value is reported as “inhibited”. The “proliferation of Treg cells (Foxp3, flow cytometry)” value (“proliferation of Treg cells” for short) with Foxp3 Treg cells is on record as “did not increase”. Moreover, the “proliferation of Treg cells” value in the assay on Foxp3 Treg cells (listed as Fk506) was “significantly increased”. Moreover, the “proliferation of allogenic T cells (FIG. 13b)” value in assay [1] is reported as “not effective”.

For the compound `CCN(C(=N)NC(=N)N)c1ccc(F)cc1` [SD282], in the assay with allogenic T cells, the “T cell proliferation (3H-thymidine incorporation, FIG. 1)” value is given as “significantly inhibited” and the “T cell proliferation (flow cytometry, FIG. 2)” value is recorded as “inhibited”. For the same compound, in the assay with pathogenic Th17 cells, the “IL-17+CD4+ T cells (%) / proliferation” value is “inhibited” and the “activity of the inflammatory cytokine IL-17 (ELISA)” value is recorded as “inhibited”. In addition, in the assay with Foxp3 Treg cells, the “proliferation of Treg cells” value is given as “significantly increased”. For the same compound, the “proliferation of allogenic T cells (FIG. 13b)” value in assay [1] was “significantly inhibited”. Further, the “T cell proliferation (FIG. 13a)” value in assay [1] (4 days, or more of SD282 alone, compared to control group) was “inhibited”. Further, in the assay with IL-17, IFN-γ and TNF-α, the “activity of IFN-γ (ELISA)” value is listed as “more significantly inhibited”, the “activity of IL-17 (ELISA)” value was “more significantly inhibited” and the “activity of TNF-α (ELISA)” value was “more significantly inhibited”. Moreover, in assay [2], the “various pathways increased in a liver-transplanted patient (KEGG)” value is on record as “inhibited”.
